Reference: patent US9796733B2, “Imidazo-pyrazine derivatives useful as soluble guanylate cyclase activators” (Merck Sharp & Dohme Corp., priority 2014, dated 2017)

How the values were obtained:
sGC α1/β1 heterodimer = target: T1, sGC α1/β1 heterodimer (Homo sapiens, UniProt Q02108+Q02153); assay: Cell-based sGC functional assay (CASA assay): cGMP generation in CHO-K1/sGC cells, HTRF detection; conditions: for Emax: CHO-K1, percent activation relative to standard Compound A in CHO-K1/sGC cells, read-out: % Act.; for EC50: inflection point (IP) of cGMP generation in CHO-K1/sGC cells, 4P fit, activity expressed as percentage of Compound A
T1 construct: expressed in transfected cells; host or cells: CHO-K1 (clone #7, CHO-K1/sGC)
T1 sequence (Q02108 1-690): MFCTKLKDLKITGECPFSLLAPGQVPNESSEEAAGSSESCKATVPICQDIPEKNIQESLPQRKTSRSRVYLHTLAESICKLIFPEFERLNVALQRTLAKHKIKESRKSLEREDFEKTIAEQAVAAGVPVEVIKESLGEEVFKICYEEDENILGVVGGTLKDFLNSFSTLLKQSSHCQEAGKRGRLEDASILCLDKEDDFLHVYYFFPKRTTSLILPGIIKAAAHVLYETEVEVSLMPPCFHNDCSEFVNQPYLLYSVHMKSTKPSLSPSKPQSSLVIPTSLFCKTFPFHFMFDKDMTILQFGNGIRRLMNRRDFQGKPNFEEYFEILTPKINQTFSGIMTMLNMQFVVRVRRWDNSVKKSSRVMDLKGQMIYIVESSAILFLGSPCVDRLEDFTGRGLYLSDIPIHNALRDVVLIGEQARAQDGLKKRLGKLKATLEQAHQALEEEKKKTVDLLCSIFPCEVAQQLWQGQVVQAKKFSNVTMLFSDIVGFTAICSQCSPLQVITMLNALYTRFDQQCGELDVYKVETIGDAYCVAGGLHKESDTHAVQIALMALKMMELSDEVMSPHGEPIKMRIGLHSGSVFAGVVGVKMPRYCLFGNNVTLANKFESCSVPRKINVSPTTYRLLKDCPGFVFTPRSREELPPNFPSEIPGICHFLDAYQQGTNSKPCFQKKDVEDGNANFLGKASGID
T1 sequence (Q02153 1-619): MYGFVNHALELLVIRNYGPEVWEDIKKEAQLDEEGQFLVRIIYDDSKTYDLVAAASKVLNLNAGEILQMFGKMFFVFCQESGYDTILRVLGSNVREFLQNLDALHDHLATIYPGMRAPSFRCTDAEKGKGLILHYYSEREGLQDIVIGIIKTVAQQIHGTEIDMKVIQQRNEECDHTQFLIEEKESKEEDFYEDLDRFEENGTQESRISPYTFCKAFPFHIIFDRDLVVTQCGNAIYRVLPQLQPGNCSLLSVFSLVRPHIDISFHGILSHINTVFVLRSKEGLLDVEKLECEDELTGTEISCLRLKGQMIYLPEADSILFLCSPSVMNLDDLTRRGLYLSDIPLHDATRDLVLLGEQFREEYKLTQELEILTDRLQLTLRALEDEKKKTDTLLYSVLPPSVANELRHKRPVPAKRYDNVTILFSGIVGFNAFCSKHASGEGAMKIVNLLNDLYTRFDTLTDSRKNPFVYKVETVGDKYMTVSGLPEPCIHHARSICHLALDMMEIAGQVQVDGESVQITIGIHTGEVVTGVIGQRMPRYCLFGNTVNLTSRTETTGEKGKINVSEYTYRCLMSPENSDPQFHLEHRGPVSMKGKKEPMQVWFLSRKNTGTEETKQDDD
Summary of the method: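 cGMP was quantified by HTRF after 1 hr, 37° C exposure of thawed CHO-K1 cells expressing sGC α1/β1 to compound, with or without 1 μM DETA-NO. IBMX (0.5 mM) blocked cGMP breakdown, and DMSO was 2.5% final. Percent of standard Compound A's maximal cGMP was fitted (4P) for inflection point.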

[1] = tested on: Spontaneously hypertensive rats (SHR); assay: Acute efficacy in spontaneously hypertensive rats (SHR): telemetry blood pressure lowering after a single oral dose; assay type: in vivo, rat
From the text: Acute Efficacy in Spontaneously Hypertensive Rats (SHR)
Spontaneously hypertensive rats (SHR, male, Charles River) were implanted with DSI TA11PA-C40 telemetry device (Data Sciences, Inc., St. Paul, Minn.) under isoflurane or ketamine/metomidine anesthesia. The telemetry unit catheter was inserted into the descending aorta via the femoral artery and the telemetry device was implanted subcutaneously in the left flank area. Animals were allowed to recover from surgery for 14 days before the start of any studies. Blood pressure, heart rate, and activity signals from conscious, freely moving rats were recorded continuously for 30 seconds every 10 minutes. On the day prior to administration of compound, a single oral dose of vehicle (10% transcutol/20% Cremophor/70% water) was administered to all animals to establish baseline control data. The blood pressure lowering efficacy of compound (PO) or vehicle was evaluated following a single oral gavage. Data were collected as hourly averages, and changes in blood pressure were calculated by subtracting control baseline data on an hourly basis. Animals were maintained on normal diet with a 12 hour light-dark cycle.
Maximum peak decreases of systolic blood pressure (SBP) in SHR at a particular P.O. dose (mpk milligrams per kilogram) for the following representative compounds are provided. Category A=SBP in SHRs<20 mmHg; Category B=SBP in SHRs 20-40 mmHg; Category C=SBP in SHRs>40 mmHg

Row | SMILES | Emax (sGC α1/β1 heterodimer) [%] | EC50 (sGC α1/β1 heterodimer) [nM] | Maximum peak decrease of systolic blood pressure (SBP) in SHR, Cat. ([1]; P.O. 0.3 mpk) | Maximum peak decrease of systolic blood pressure (SBP) in SHR, Cat. ([1]; P.O. 1.0 mpk) | Maximum peak decrease of systolic blood pressure (SBP) in SHR, Cat. ([1]; P.O. 2.0 mpk) | Maximum peak decrease of systolic blood pressure (SBP) in SHR, Cat. ([1]; P.O. 3.0 mpk)
1 | Nc1nc(-c2cn3ccnc3c(CCC(F)(F)F)n2)nc2c1C(c1ccc(Cl)cc1F)(C1CC1)C(=O)N2 (stereo not drawn) [Example 338A, 4-amino-5-(4-chloro-2-fluorophenyl)-5-cyclopropyl-2-(8-(3,3,3-trifluoropropyl)imidazo[1,2-a]pyrazin-6-yl)-5H-pyrrolo[2,3-d]pyrimidin-6(7H)-one] | 158 | 178 | – | – | B (Category B=SBP in SHRs 20-40 mmHg) | –
2 | CC(C)Cc1nc(-c2nc(N)c3c(n2)NC(=O)C3(c2ccc(F)c(F)c2)C2CC2)cn2ccnc12 (stereo not drawn) [Example 335A, 4-amino-5-cyclopropyl-5-(3,4-difluorophenyl)-2-(8-isobutylimidazo[1,2-a]pyrazin-6-yl)-5H-pyrrolo[2,3-d]pyrimidin-6(7H)-one] | 140 | 303 | – | – | – | B (Category B=SBP in SHRs 20-40 mmHg)
3 | Nc1nc(-c2cn3ccnc3c(CCC(F)(F)C(F)(F)F)n2)nc2c1C(c1ccc(Cl)cn1)(C1CC1)C(=O)N2 (stereo not drawn) [Example 245B, 4-amino-5-(5-chloropyridin-2-yl)-5-cyclopropyl-2-(8-(3,3,4,4,4-pentafluorobutyl)imidazo [1,2-a]pyrazin-6-yl)-5H-pyrrolo[2,3-d]pyrimidin-6(7H)-one] | 118 | 77 | – | C (Category C=SBP in SHRs>40 mmHg) | – | –
4 | Nc1nc(-c2cn3ccnc3c(CCC(F)(F)C(F)(F)F)n2)nc2c1C(c1ccc(F)cc1)(C1CCC1)C(=O)N2 (single isomer, unassigned) [Example 344B, 4-amino-5-cyclobutyl-5-(4-fluorophenyl)-2-(8-(3,3,4,4,4-pentafluorobutyl)imidazo[1,2-a]pyrazin-6-yl)-5H-pyrrolo[2,3-d]pyrimidin-6(7H)-one] | 163 | 51 | A (Category A=SBP in SHRs<20 mmHg) | – | – | –
5 | CC1(c2ccc(F)cc2)C(=O)Nc2nc(-c3cn4c(Br)cnc4c(CCC(F)(F)C(F)(F)F)n3)nc(N)c21 (stereo not drawn) [Example 254A, 4-amino-2-(3-bromo-8-(3,3,4,4,4-pentafluorobutyl)imidazo [1,2-a]pyrazin-6-yl)-5-(4-fluorophenyl)-5-methyl-5H-pyrrolo[2,3-d]pyrimidin-6(7H)-one] | 126 | 57 | – | C (Category C=SBP in SHRs>40 mmHg) | – | –
6 | CCCc1nc(-c2nc(N)c3c(n2)NC(=O)C3(C)c2ccc(C(F)(F)F)cc2)cn2ccnc12 (stereo not drawn) [Example 131B, 4-amino-5-methyl-2-(8-propylimidazo[1,2-a]pyrazin-6-yl)-5-(4-(trifluoromethyl)phenyl)-5H-pyrrolo[2,3-d]pyrimidin-6(7H)-one] | 88 | 178 | – | B (Category B=SBP in SHRs 20-40 mmHg) | – | –

Further compounds by falling EC50 (sGC α1/β1 heterodimer), results first:

Row | Emax (sGC α1/β1 heterodimer) [%] | EC50 (sGC α1/β1 heterodimer) [nM] | SMILES | Maximum peak decrease of systolic blood pressure (SBP) in SHR, Cat. ([1]; P.O. 0.3 mpk) | Maximum peak decrease of systolic blood pressure (SBP) in SHR, Cat. ([1]; P.O. 1.0 mpk) | Maximum peak decrease of systolic blood pressure (SBP) in SHR, Cat. ([1]; P.O. 2.0 mpk) | Maximum peak decrease of systolic blood pressure (SBP) in SHR, Cat. ([1]; P.O. 3.0 mpk)
7 | 103 | 552 | CCc1cn2cc(-c3nc(N)c4c(n3)NC(=O)C4(C)c3ccc(F)cc3)nc(CCC(F)(F)C(F)(F)F)c2n1 (stereo not drawn) [Example 159A, 4-amino-2-(2-ethyl-8-(3,3,4,4,4-pentafluorobutyl)imidazo [1,2-a]pyrazin-6-yl)-5-(4-fluorophenyl)-5-methyl-5H-pyrrolo[2,3-d]pyrimidin-6(7H)-one] | – | – | – | A (Category A=SBP in SHRs<20 mmHg)
8 | 92 | 373 | Nc1nc(-c2cn3ccnc3c(CCCC(F)(F)F)n2)nc2c1C(c1ccc(C(F)F)cn1)(C1CC1)C(=O)N2 (single isomer, unassigned) [Example 378B, 4-amino-5-cyclopropyl-5-(5-(difluoromethyl)pyridin-2-yl)-2-(8-(4,4,4-trifluorobutyl)imidazo[1,2-a]pyrazin-6-yl)-5H-pyrrolo[2,3-d]pyrimidin-6(7H)-one] | – | B (Category B=SBP in SHRs 20-40 mmHg) | – | –
9 | 102 | 299 | Cc1nnc(C2(C)C(=O)Nc3nc(-c4cn5ccnc5c(Cc5ccc(F)cc5)n4)nc(N)c32)o1 (single isomer, unassigned) [Example 29A, 4-Amino-2-(8-(4-fluorobenzyl)imidazo[1,2-a]pyrazin-6-yl)-5-methyl-5-(5-methyl-1,3,4-oxadiazol-2-yl)-5H-pyrrolo[2,3-d]pyrimidin-6(7H)-one] | – | – | – | B (Category B=SBP in SHRs 20-40 mmHg)
10 | 126 | 202 | CCCCc1nc(-c2nc(N)c3c(n2)NC(=O)C3(c2cccc(C(F)(F)F)n2)C2CC2)cn2ccnc12 (single isomer, unassigned) [Example 355A, 4-amino-2-(8-butylimidazo[1,2-a]pyrazin-6-yl)-5-cyclopropyl-5-(6-(trifluoromethyl)pyridin-2-yl)-5H-pyrrolo[2,3-d]pyrimidin-6(7H)-one] | – | A (Category A=SBP in SHRs<20 mmHg) | – | –
11 | 113 | 119 | CC(C)Cc1nc(-c2nc(N)c3c(n2)NC(=O)C3(c2ccc(Cl)c(F)c2)C2CC2)cn2ccnc12 (stereo not drawn) [Example 315A, 4-amino-5-(4-chloro-3-fluorophenyl)-5-cyclopropyl-2-(8-isobutylimidazo[1,2-a]pyrazin-6-yl)-5H-pyrrolo[2,3-d]pyrimidin-6(7H)-one] | – | – | – | B (Category B=SBP in SHRs 20-40 mmHg)
12 | 105 | 53 | CC1(c2ccc(C3CC3)nc2)C(=O)Nc2nc(-c3cn4ccnc4c(CCC(F)(F)C(F)(F)F)n3)nc(N)c21 (stereo not drawn) [Example 240B, 4-amino-5-(6-cyclopropylpyridin-3-yl)-5-methyl-2-(8-(3,3,4,4,4-pentafluorobutyl)imidazo [1,2-a]pyrazin-6-yl)-5H-pyrrolo[2,3-d]pyrimidin-6(7H)-one] | – | A (Category A=SBP in SHRs<20 mmHg) | – | –
13 | 109 | 44 | CC1(C)C(=O)Nc2nc(-c3cn4ccnc4c(Cc4cccc(F)c4)n3)nc(N)c21 [Example 71, 4-amino-2-(8-(3-fluorobenzyl)imidazo[1,2-a]pyrazin-6-yl)-5,5-dimethyl-5H-pyrrolo[2,3-d]pyrimidin-6(7H)-one] | – | C (Category C=SBP in SHRs>40 mmHg) | – | –
14 | 103 | 34 | CCCc1nc(-c2nc(N)c3c(n2)NC(=O)C3(C)c2ccc(Cl)c(F)c2)cn2ccnc12 (stereo not drawn) [Example 124B, 4-amino-5-(4-chloro-3-fluorophenyl)-5-methyl-2-(8-propylimidazo[1,2-a]pyrazin-6-yl)-5H-pyrrolo[2,3-d]pyrimidin-6(7H)-one] | B (Category B=SBP in SHRs 20-40 mmHg) | – | – | –
